Test system: PCC7942 cyanobacterium strain
Description: The bacterium amount (cell amount) was monitored by measuring the optical density (OD) of the culture medium at a wavelength of 730 nm using the Biotek epoch 2 microplate spectrophotometer. The OD730 is calculated based on a recalibration of an optical path length 1 cm.

**Q.** Which “toxicity to the growth or persistence of the cyanobacterium strain” value does the source give for `O=C(O)CCC(=O)O` [succinate] here?
**A.** not toxic

**Q.** Which “growth inhibition effect on the cyanobacterium strain” value (wild-type PCC7942 in BG-11, different concentrations, cell density observed for three days, versus sodium chloride with same sodium concentration) does the source give for `O=C([O-])CCC(=O)[O-].[Na+].[Na+]` [disodium succinate] here?
**A.** almost equivalent to the growth inhibition effect of sodium chloride
